In patent US7109193B2, “Tricyclic diazepines tocolytic oxytocin receptor antagonists” (Wyeth, priority 2001, dated 2006):

Biological target: T1, human vasopressin V2 receptor subtype (Homo sapiens, UniProt P30518)
T1 construct: host or cells: CHO cells (pZeoSV vector)
Test: Vasopressin binding in Chinese Hamster Ovary cell membranes expressing human vasopressin V2 subtype receptors
Details: 100 nM, CHO cell membranes, [3H]arginine vasopressin, values without parentheses
Outline: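 Radioligand displacement on membranes from CHO cells stably expressing human V2 receptor, 25 to 50 μg protein/well, in 50 mM Tris-HCl pH 7.4 with MgCl2, BSA and protease inhibitors. [^3H]arginine vasopressin (8 nM working solution) incubated 60 min at room temperature; bound label measured by filtration and scintillation counting.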

T1 sequence (P30518 whole entry): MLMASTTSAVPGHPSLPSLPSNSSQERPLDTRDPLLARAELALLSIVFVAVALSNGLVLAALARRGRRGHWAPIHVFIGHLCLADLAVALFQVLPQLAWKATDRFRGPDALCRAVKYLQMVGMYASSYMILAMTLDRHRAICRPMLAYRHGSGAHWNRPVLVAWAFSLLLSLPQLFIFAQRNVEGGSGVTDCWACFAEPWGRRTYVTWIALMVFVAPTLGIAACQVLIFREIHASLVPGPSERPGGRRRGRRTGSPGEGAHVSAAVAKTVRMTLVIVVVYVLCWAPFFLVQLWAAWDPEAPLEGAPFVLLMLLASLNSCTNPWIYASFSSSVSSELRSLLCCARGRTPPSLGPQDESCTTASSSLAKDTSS

inhibition at 0.1 µM	SMILES
2%	COc1cc(C(=O)N2Cc3ccc(C(=O)N4CCC(N5CCCC5)CC4)n3Cc3ccccc32)ccc1-n1c(C)ccc1C [Example 313, {10-[4-(2,5-Dimethyl-1H-pyrrol-1-yl)-3-methoxybenzoyl]-10,11-dihydro-5H-pyrrolo[2,1-c][1,4]benzodiazepin-3-yl}[4-(1-pyrrolidinyl)-1-piperidinyl]methanone]
7%	COc1cccc(-c2cc(OC)c(C(=O)N3Cc4ccc(C(=O)N5CCN(C)CC5)n4Cc4ccccc43)cc2Cl)c1 [Example 54, {10-[(6-Chloro-3,3′-dimethoxy[1,1′-biphenyl]-4-yl)carbonyl]-10,11-dihydro-5H-pyrrolo[2,1-c][1,4]benzodiazepin-3-yl}(4-methyl-1-piperazinyl)methanone]
15%	Cc1ccccc1-c1ccc(C(=O)N2Cc3ccc(C(=O)N4CCN(C)CC4)n3Cc3ccccc32)cc1C [Example 50, {10-[(2,2′-Dimethyl[1,1′-biphenyl]-4-yl)carbonyl]-10,11-dihydro-5H-pyrrolo[2,1-c][1,4]benzodiazepin-3-yl}(4-methyl-1-piperazinyl)methanone]
